The nature of data set [1]: Plasma protein binding in mouse. Type of data set: ADME, cell-free. Particulars: read-out: PPB (converted).
Data set [2] can be described thus: Dose normalized AUC (0 to 8 hrs) in CD-1 mouse at 1 mg/kg, po administered as repeated dose on day 1 and 4. Type of data set: ADME, organism-based. Particulars: in vivo, 96 h, time 4 day.
Another data set concerns OCI-AML-3. In words: Induction of morphological changes in human OCI-AML-3 cells assessed as appearance of granules and vacuoles at 10 uM. The format is functional, cell-based.
Data set [3] deals with HL-60. In words: Induction of morphological changes in human HL-60 cells assessed as variations in nuclear segmentation at 10 uM. The format is functional, cell-based.
The nature of data set [4]: Solubility of compound at pH 7. The format is physicochemical. Particulars: buffer.
Data set [5] deals with HL-60. Kind of data set: Induction of differentiation in human HL-60 cells assessed as reduction in live cell number at 123 nM incubated for 4 days by acridine orange/DAPI staining based analysis. The format is functional. As to conditions: time 4.0 day.
The test system of data set [6] is Kasumi 1. Kind of data set: Induction of morphological changes in human Kasumi 1 cells assessed as variations in cell size and shape at 10 uM. The format is functional, cell-based.
Data set [7] in a line: Cmax in CD-1 mouse at 20 mg/kg, po administered as single dose and measured on day 1. Type of data set: ADME, organism-based. As to conditions: in vivo, time 1 day.
Data set [8] can be described thus: Apparent permeability across apical to basolateral side in human Caco-2 cells. The format is ADME, cell-based. Background: Caco-2 monolayers are a common model of the intestinal barrier.
In the next data set the test system is ME-1. Kind of data set: Induction of morphological changes in human ME-1 cells assessed as variations in nuclear:cytoplasmic ratio at 10 uM. Type of data set: functional, cell-based.
The nature of data set [9]: Dose normalized Cmax in CD-1 mouse at 3 mg/kg, po administered as single dose and measured over 24 hrs. The format is ADME, organism-based. Particulars: in vivo.
A short description of data set [10]: Cmax in CD-1 mouse at 20 mg/kg, po administered as repeated dose on day 1 and 4. Type of data set: ADME, organism-based. Particulars: in vivo, time 4 day.
Data set [11] is described as follows: Half life in CD-1 mouse at 1 mg/kg, po administered as repeated dose on day 1 and 4. The format is ADME, organism-based. As to conditions: in vivo, time 4 day.
Data set [12] concerns Kasumi 1. Kind of data set: Induction of morphological changes in human Kasumi 1 cells assessed as appearance of granules and vacuoles at 10 uM. The format is functional, cell-based.
Data set [13] has as its system THP-1. Kind of data set: Induction of morphological changes in human THP-1 cells assessed as variations in cell size and shape at 10 uM. Type of data set: functional, cell-based.
A short description of data set [14]: Dose normalized Cmax in CD-1 mouse at 1 mg/kg, po administered as repeated dose on day 1 and 4. The format is ADME, organism-based. As to conditions: in vivo, 96 h, time 4 day.
Data set [15] concerns THP-1. Kind of data set: Induction of differentiation in human THP-1 cells assessed as upregulation of CD11b response incubated for 4 days by flow cytometry analysis. As to conditions: THP-1, 96 h. A general note: In flow cytometry, cells or beads pass a laser one at a time.

In brackets after ≈: the same amount, converted by molar mass. Activity calls are given as the source filed them. The rule behind the calls is not given here.

For orientation: solubility means the dissolved amount per volume that the medium holds. For orientation: Cmax means the highest concentration seen after dosing. In general, Papp A→B refers to the apparent permeability from the apical to the basolateral side of a cell layer. Usually half-life stands for how long it takes for the measured level to halve. As usually defined, the EC50 is the midpoint of the concentration-response curve. As for `Cc1cc(F)ccc1-c1cc(NS(C)(=O)=O)c2ncc(-c3ccc4c(cnn4C)c3)n2c1`, the fraction unbound in data set [1] was 0.005. Moreover, the AUC/dose in data set [2] came to 731 ng·h/mL. Also, the result in the data set on OCI-AML-3, with HL-60 [3], in the data set with HL-60 [5], in the data set on Kasumi 1 [6], in the data set on ME-1 and in the data set with Kasumi 1 [12] was Active. The result with THP-1 [13] was Active. In [4], the solubility was determined as 21 µM (≈ 9.44 µg/mL). Moreover, the highest concentration (Cmax) is 677 ng/mL in data set [7] and 784 ng/mL in [10]. Further, the apparent permeability from apical to basolateral (Papp A→B) in data set [8] was determined as 16 ×10⁻⁶ cm/s. In addition, the Cmax/dose amounted to 120 ng/mL in [9] and 204 ng/mL in data set [14]. In data set [11], this compound had a half-life of 150 min. Also, the EC50 with THP-1 [15] is 69 nM.

Source of the values: ChEMBL document CHEMBL5620396, “Phenotypic screening identifies a trisubstituted imidazo[1,2-a]pyridine series that induces differentiation in multiple AML cell lines” (Eur J Med Chem, 2023).
